In patent publication US20070282012A1 (priority 2004, published 2007):
Where “and” joins values, the source holds several entries; their conditions need not be identical. Equal entries are not always repeated.

Experiments:
[1] = test system: normal subjects; parameters: species or system human; details: in vivo
[2] = test system: normal subjects; parameters: species or system human; details: in vivo; remark: listed apart in the source
[3] = test system: normal subjects; parameters: species or system human; details: in vivo; remark: listed apart in the source
[4] = test system: patients with tear deficient dry eye; details: human, in vivo
[5] = test system: patients with tear deficient dry eye; details: human, in vivo; remark: listed apart in the source
[6] = test system: tear deficient dry eyes; parameters: species or system human; details: in vivo
[7] = test system: tear deficient dry eyes; parameters: species or system human; details: in vivo; remark: listed apart in the source
[8] = test system: subjects regularly wearing SCL; parameters: species or system human; details: in vivo
[9] = test system: subjects regularly wearing SCL; parameters: species or system human; details: in vivo; remark: listed apart in the source
[10] = test system: subjects regularly wearing SCL; parameters: species or system human; details: in vivo; remark: listed apart in the source
[11] = test system: normal subjects; details: in vivo
[12] = test system: patients with tear deficient dry eye; details: in vivo

Thiopropanal S-Oxide [lacrimatory component]
lacrimation in the contralateral non-exposed eye [1]: lacrimation is induced in the contralateral non-exposed eye | time after exposure by which ΔR reached the maximum [1]: ≤ 1 min | ΔR (2 minutes) [1]: 0.25±0.14 mm | ΔR (10 minutes) [1]: ~0 mm | ΔR in the contralateral non-exposed eye [1]: 0.30 mm | degree of stimulation [2]: 0 | mean degree of the stimulation, four-level category rating [2]: 3 and 1.5 | mean time taken for the stimulation to be felt (ST) [2]: 9.8 s and 14.5 s and 13.3 s | time taken for stimulation to be felt (ST), mean value±standard deviation [2]: 9.8 ± 1.5 s | reflex lacrimation by nasal exposure [3]: no reflex lacrimation is induced | time after exposure at which ΔR was maximum [4]: 2 min | ΔR (5 minutes) [4]: ~0 mm | degree of the stimulation, four-level category rating [5]: zero | mean degree of the stimulation, four-level category rating [5]: 1.8 and 1.7 | time taken for stimulation to be felt (ST), mean value±standard deviation [5]: 18.8 ± 9.3 s and 21.4 ± 9.8 s | radius of tear meniscus curvature R, mean value±standard deviation [6]: 0.34±0.20 mm | extensibility of the tear lipid layer, Grade, mean value±standard deviation [7]: 1.5±0.6 | R (radius of tear meniscus curvature), mean value±standard deviation [8]: 0.54±0.14 mm | grades of specular image of the tears on SCL [9]: 1.4±0.5 | NIBUT [10]: 9.1 ± 2.1 s | adverse or lingering effects of the exposure on the ocular surface [11]: not found | effects on the ocular surface epithelium [12]: No effects on the ocular surface epithelium was observed
